Values of other authors, collected in US6071534A, “Multivesicular liposomes with controlled release of active agents encapsulated in the presence of a hydrochloride” (priority 1998, dated 2000).

Conditions: after IP, IV, IT, IA, IM or SC dose

Nc1ccn([C@@H]2O[C@H](CO)[C@@H](O)[C@@H]2O)c(=O)n1 [cytarabine, cytosine arabinoside]
half-life: very short
